According to ChEMBL document CHEMBL3758098, “3-(Dipropylamino)-5-hydroxybenzofuro[2,3-f]quinazolin-1(2H)-one (DPA-HBFQ-1) plays an inhibitory role on breast cancer cell growth and progression” (Eur J Med Chem, 2016):
pIC50: −log10 of the molar value. Active and inactive are the calls of the source. The calls are words filed in the database; no cut-off is given here.

Assays:
[1] = target: Cellular tumor antigen p53 (Homo sapiens) (UniProt P04637); assay: Activation of p53 in human MCF7 cells assessed as upregulation of […]/WAF1 gene expression at 1 uM after 24 hrs by dual luciferase reporter gene assay; format: cell-based
[2] = Cytotoxicity against human MCF10A cells assessed as cell viability after 5 days by MTT assay; format: cell-based; details: MCF-10A, 120 h
[3] = Cytotoxicity against human MCF10A cells assessed as growth inhibition at 1 uM after 5 days by MTT assay relative to vehicle-treated control; format: cell-based; details: mcf-10a, 120 h
[4] = Cytotoxicity against rat R2C cells assessed as growth inhibition by MTT assay; format: functional, cell-based
MCF7 [5] = assay: Cytotoxicity against human MCF7 cells assessed as reduction of colony formation at 1 uM after 14 days by MTT staining-based anchorage-independant soft agar assay; format: functional, cell-based
[6] = target: Cellular tumor antigen p53 (Homo sapiens) (UniProt P04637); assay: Activation of p53 in human MDA-MB-231 cells assessed as upregulation of […]/WAF1 mRNA expression at 0.1 uM after 12 hrs by RT-PCR analysis; format: cell-based
MDA-MB-231 [7] = assay: Cytotoxicity against human MDA-MB-231 cells assessed as cell viability after 5 days by MTT assay; format: functional, cell-based; details: MDA-MB-231, 120 h
MDA-MB-231 [8] = assay: Upregulation of p53 expression in human MDA-MB-231 cells after 48 hrs by Western blot analysis; format: functional, cell-based
MDA-MB-231 [9] = assay: Cytotoxicity against human MDA-MB-231 cells assessed as growth inhibition at 1 uM after 5 days by MTT assay relative to vehicle-treated control; format: functional
[10] = target: Cellular tumor antigen p53 (Homo sapiens) (UniProt P04637); assay: Activation of p53 in human MCF-7 TR1 cells assessed as upregulation of […]/WAF1 gene expression at 0.1 uM after 48 hrs by Western blot analysis; format: cell-based
[11] = Upregulation of p53 expression in human MCF-7 TR1 cells at 1 uM after 48 hrs by Western blot analysis; format: functional, cell-based
MDA-MB-231 [12] = assay: Induction of apoptosis in human MDA-MB-231 cells assessed as DNA fragmentation at 1 uM after 48 hrs by DNA laddering assay; format: functional, cell-based
[13] = target: Cellular tumor antigen p53 (Homo sapiens) (UniProt P04637); assay: Activation of p53 in human MDA-MB-231 cells assessed as upregulation of […]/WAF1 expression after 48 hrs by Western blot analysis; format: cell-based
[14] = Induction of apoptosis in human MCF10A cells assessed as DNA fragmentation at 1 uM after 48 hrs by DNA laddering assay; format: cell-based; details: mcf-10a
[15] = target: Cellular tumor antigen p53 (Homo sapiens) (UniProt P04637); assay: Activation of p53 in human MCF7 cells assessed as upregulation of […]/WAF1 mRNA expression at 0.1 uM after 12 hrs by RT-PCR analysis; format: cell-based
[16] = Induction of apoptosis in human MCF10A cells assessed as PARP proteolysis at 1 uM after 48 hrs by Western blot analysis; format: cell-based; details: mcf-10a
[17] = target: Cellular tumor antigen p53 (Homo sapiens) (UniProt P04637); assay: Activation of p53 in human MCF7 cells assessed as upregulation of […]/WAF1 gene expression at 0.1 to 1 uM after 24 hrs by dual luciferase reporter gene assay; format: cell-based
[18] = target: T1, DNA topoisomerase 1 (Homo sapiens) (UniProt P11387); assay: Inhibition of recombinant human topoisomerase 1 assessed as relaxation of supercoiled pHOT1 at 50 uM after 30 mins by agarose gel electrophoresis
T1 sequence (whole entry): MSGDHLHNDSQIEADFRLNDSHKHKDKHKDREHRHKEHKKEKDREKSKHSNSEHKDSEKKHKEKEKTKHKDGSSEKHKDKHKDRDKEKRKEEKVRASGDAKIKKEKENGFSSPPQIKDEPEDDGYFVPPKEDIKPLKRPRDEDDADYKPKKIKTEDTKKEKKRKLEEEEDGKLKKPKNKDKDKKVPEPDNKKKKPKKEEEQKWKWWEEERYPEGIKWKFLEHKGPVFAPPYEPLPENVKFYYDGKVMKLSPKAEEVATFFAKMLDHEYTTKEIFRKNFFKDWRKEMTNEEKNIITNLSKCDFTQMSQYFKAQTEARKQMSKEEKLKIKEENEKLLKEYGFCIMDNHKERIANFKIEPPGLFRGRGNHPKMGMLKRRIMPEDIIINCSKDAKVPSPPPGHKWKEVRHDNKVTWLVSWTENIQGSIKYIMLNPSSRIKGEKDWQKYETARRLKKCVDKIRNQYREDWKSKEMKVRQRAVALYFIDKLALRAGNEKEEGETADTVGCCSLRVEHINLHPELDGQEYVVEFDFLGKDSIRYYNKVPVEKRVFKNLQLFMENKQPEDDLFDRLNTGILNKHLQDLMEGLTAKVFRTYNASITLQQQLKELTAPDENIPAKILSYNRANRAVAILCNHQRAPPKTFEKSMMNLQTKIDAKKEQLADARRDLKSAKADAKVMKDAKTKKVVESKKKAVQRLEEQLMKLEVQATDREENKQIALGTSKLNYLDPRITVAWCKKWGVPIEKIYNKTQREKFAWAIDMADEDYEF

HeLa = assay: Cytotoxicity against human HeLa cells assessed as growth inhibition by MTT assay; format: functional, cell-based
MCF7 [19] = assay: Induction of p53 consensus sequences deficient […]/WAF1 promoter activity in human MCF7 cells at 1 uM after 24 hrs by dual luciferase reporter gene assay; format: cell-based
MDA-MB-231 [20] = assay: Upregulation of p53 mRNA expression in human MDA-MB-231 cells at 0.1 to 1 uM after 12 hrs by RT-PCR analysis; format: functional, cell-based
MDA-MB-231 [21] = assay: Cytotoxicity against human MDA-MB-231 cells assessed as reduction of colony formation at 1 uM after 14 days by MTT staining-based anchorage-independant soft agar assay; format: functional, cell-based
[22] = target: T1, DNA topoisomerase 1 (Homo sapiens); assay: Inhibition of recombinant human topoisomerase 1 assessed as relaxation of supercoiled pHOT1 at 10 uM after 30 mins by agarose gel electrophoresis
[23] = target: Cellular tumor antigen p53 (Homo sapiens) (UniProt P04637); assay: Activation of p53 in human MCF7 cells assessed as upregulation of […]/WAF1 expression after 48 hrs by Western blot analysis; format: cell-based
MCF7 [24] = assay: Upregulation of p53 mRNA expression in human MCF7 cells at 0.1 to 1 uM after 12 hrs by RT-PCR analysis; format: functional, cell-based
MCF7 [25] = assay: Cytotoxicity against human MCF7 cells assessed as reduction of colony formation at 0.1 uM after 14 days by MTT staining-based anchorage-independant soft agar assay; format: functional, cell-based
MCF7 [26] = assay: Cytotoxicity against human MCF7 cells assessed as growth inhibition at 1 uM after 5 days by MTT assay relative to vehicle-treated control; format: functional; details: MCF7, 120 h, read-out: GI
MCF-7 TR1 [27] = assay: Cytotoxicity against human MCF-7 TR1 cells assessed as reduction of colony formation at 1 uM after 14 days by MTT staining-based anchorage-independant soft agar assay; format: functional, cell-based
[28] = target: Cellular tumor antigen p53 (Homo sapiens) (UniProt P04637); assay: Activation of p53 in human MDA-MB-231 cells assessed as upregulation of […]/WAF1 mRNA expression at 1 uM after 12 hrs by RT-PCR analysis; format: cell-based
MCF7 [29] = assay: Induction of apoptosis in human MCF7 cells assessed as DNA fragmentation at 1 uM after 48 hrs by DNA laddering assay; format: functional, cell-based
[30] = target: Cellular tumor antigen p53 (Homo sapiens) (UniProt P04637); assay: Activation of p53 in human MCF7 cells assessed as upregulation of […]/WAF1 gene expression at 1 uM by dual luciferase reporter gene assay in presence of p53 siRNA; format: cell-based
[31] = target: Cellular tumor antigen p53 (Homo sapiens) (UniProt P04637); assay: Activation of p53 in human MCF7 cells assessed as upregulation of […]/WAF1 mRNA expression at 1 uM after 12 hrs by RT-PCR analysis; format: cell-based
MCF7 [32] = assay: Induction of p53 consensus sequences deficient […]/WAF1 promoter activity in human MCF7 cells at 0.1 uM after 24 hrs by dual luciferase reporter gene assay; format: cell-based
[33] = target: DNA topoisomerase 2-alpha (Homo sapiens) (UniProt P11388); assay: Inhibition of human topoisomerase 2 assessed as decatenation of kDNA after 30 mins by agarose gel electrophoresis
MCF7 [34] = assay: Cytotoxicity against human MCF7 cells assessed as cell viability after 5 days by MTT assay; format: functional, cell-based; details: MCF7, 120 h
Ishikawa = assay: Cytotoxicity against human Ishikawa cells assessed as growth inhibition by MTT assay; format: functional, cell-based
[35] = Upregulation of p53 expression in human MCF-7 TR1 cells at 0.1 uM after 48 hrs by Western blot analysis; format: functional, cell-based
HepG2 = assay: Cytotoxicity against human HepG2 cells assessed as growth inhibition by MTT assay; format: functional, cell-based
MCF-7 TR1 [36] = assay: Induction of apoptosis in human MCF-7 TR1 cells assessed as PARP proteolysis at 1 uM after 48 hrs by Western blot analysis; format: functional, cell-based
MCF-7 TR1 [37] = assay: Cytotoxicity against human MCF-7 TR1 cells assessed as reduction of cell vitality at 0.1 to 1 uM after 3 to 5 days by MTT assay; format: functional, cell-based
MCF-7 TR1 [38] = assay: Induction of apoptosis in human MCF-7 TR1 cells assessed as DNA fragmentation at 1 uM after 48 hrs by DNA laddering analysis; format: functional, cell-based
MCF7 [39] = assay: Induction of apoptosis in human MCF7 cells assessed as PARP proteolysis at 1 uM after 48 hrs by Western blot analysis; format: functional, cell-based
[40] = Upregulation of p53 expression in human MCF10A cells at 0.1 uM after 48 hrs by Western blot analysis; format: ADME, cell-based; details: mcf-10a
[41] = Cytotoxicity against human MCF-7 TR1 cells assessed as cell colony formation after 14 days by crystal violet staining-based assay; format: functional; details: MCF-7 TR1, 336 h
MDA-MB-231 [42] = assay: Cytotoxicity against human MDA-MB-231 cells assessed as reduction of colony formation at 0.1 uM after 14 days by MTT staining-based anchorage-independant soft agar assay; format: functional, cell-based
[43] = target: Cellular tumor antigen p53 (Homo sapiens) (UniProt P04637); assay: Activation of p53 in human MCF7 cells assessed as upregulation of […]/WAF1 gene expression at 0.1 uM after 24 hrs by dual luciferase reporter gene assay; format: cell-based
[44] = Upregulation of p53 expression in human MCF10A cells at 1 uM after 48 hrs by Western blot analysis; format: ADME, cell-based; details: mcf-10a
MDA-MB-231 [45] = assay: Induction of p53 consensus sequences deficient […]/WAF1 promoter activity in human MDA-MB-231 cells at 0.1 to 1 uM after 24 hrs by dual luciferase reporter gene assay; format: cell-based
[46] = target: Cellular tumor antigen p53 (Homo sapiens) (UniProt P04637); assay: Activation of p53 in human MCF-7 TR1 cells assessed as upregulation of […]/WAF1 gene expression at 1 uM after 48 hrs by Western blot analysis; format: cell-based
MCF7 [47] = assay: Upregulation of p53 expression in human MCF7 cells after 48 hrs by Western blot analysis; format: functional, cell-based

Chain of Cellular tumor antigen p53 (Homo sapiens) (P04637 whole entry, looked up, the tested form may be a part): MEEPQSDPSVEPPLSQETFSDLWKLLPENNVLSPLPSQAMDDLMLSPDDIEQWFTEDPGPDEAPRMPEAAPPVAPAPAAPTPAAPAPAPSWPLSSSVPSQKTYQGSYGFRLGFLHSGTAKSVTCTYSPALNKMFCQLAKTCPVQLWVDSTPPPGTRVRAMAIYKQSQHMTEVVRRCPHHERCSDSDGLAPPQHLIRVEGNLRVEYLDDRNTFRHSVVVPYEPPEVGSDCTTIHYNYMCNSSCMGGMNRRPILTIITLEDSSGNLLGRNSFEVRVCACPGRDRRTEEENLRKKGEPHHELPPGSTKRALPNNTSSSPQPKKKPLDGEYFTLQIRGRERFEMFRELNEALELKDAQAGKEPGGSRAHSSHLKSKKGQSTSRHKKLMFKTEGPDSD
Chain of DNA topoisomerase 2-alpha (Homo sapiens) (P11388 whole entry): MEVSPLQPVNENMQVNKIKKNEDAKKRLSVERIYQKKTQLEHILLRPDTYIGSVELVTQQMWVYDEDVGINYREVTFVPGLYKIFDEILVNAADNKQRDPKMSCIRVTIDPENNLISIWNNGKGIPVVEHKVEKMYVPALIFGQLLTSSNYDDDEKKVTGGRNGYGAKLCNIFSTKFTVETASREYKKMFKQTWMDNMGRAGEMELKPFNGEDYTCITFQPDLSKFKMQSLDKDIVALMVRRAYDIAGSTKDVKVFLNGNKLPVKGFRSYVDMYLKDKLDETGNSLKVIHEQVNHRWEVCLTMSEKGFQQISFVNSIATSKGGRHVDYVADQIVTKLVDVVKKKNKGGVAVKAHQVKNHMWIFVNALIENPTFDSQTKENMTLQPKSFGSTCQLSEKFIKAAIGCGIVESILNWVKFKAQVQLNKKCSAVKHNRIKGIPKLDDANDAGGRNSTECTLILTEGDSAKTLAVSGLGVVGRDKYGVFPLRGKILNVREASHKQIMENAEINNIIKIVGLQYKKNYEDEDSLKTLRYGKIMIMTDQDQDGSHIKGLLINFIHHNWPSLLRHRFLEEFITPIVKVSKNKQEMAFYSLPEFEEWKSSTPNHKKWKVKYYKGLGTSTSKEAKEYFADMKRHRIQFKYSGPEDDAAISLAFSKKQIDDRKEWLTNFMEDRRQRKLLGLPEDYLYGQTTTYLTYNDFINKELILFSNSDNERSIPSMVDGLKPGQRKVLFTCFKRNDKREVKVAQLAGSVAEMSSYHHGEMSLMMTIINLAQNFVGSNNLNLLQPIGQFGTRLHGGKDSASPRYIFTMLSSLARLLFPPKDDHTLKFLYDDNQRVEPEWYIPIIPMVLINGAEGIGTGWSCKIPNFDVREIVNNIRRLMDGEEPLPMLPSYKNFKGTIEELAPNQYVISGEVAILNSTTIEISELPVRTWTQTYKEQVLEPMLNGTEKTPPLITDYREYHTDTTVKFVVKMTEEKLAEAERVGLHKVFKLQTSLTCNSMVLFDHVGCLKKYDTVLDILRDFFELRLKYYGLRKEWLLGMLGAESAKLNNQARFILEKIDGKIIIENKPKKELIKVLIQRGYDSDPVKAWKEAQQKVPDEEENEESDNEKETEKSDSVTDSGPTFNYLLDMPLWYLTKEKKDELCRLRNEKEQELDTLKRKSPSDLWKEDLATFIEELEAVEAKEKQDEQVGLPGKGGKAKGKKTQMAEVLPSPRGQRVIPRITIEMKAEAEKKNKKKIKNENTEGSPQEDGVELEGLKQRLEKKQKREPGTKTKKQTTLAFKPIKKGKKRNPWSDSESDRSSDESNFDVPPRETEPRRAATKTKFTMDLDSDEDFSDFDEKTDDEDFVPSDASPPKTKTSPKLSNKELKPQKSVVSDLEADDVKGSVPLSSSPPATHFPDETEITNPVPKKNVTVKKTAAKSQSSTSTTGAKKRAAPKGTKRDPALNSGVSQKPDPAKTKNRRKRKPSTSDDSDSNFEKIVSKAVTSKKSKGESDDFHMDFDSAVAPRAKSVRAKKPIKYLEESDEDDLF

CCCN(CCC)c1nc2c(O)cc3c4ccccc4oc3c2c(=O)[nH]1
Activity [1]: Active | pIC50 [2]: 4.48 | Activity [3]: Non-toxic | pIC50 [4]: 5.92 | Activity (MCF7 [5]): Active | Activity [6]: Active | pIC50 (MDA-MB-231 [7]): 6.19 | Activity (MDA-MB-231 [8]): Dose-dependent effect | inhibition of growth at 1 µM (MDA-MB-231 [9]; MDA-MB-231, 120 h, read-out: GI): 60% | Activity [10]: Active | Activity [11]: Active | Activity (MDA-MB-231 [12]): Active | Activity [13]: Dose-dependent effect | Activity [14]: Non-toxic | Activity [15]: Active | Activity [16]: Non-toxic | Activity [17]: inactive | inhibition [18]: inactive | pIC50 (HeLa): 6.15 | Activity (MCF7 [19]): inactive | Activity (MDA-MB-231 [20]): inactive | Activity (MDA-MB-231 [21]): Active | inhibition [22]: inactive | Activity [23]: Dose-dependent effect | Activity (MCF7 [24]): inactive | Activity (MCF7 [25]): Active | inhibition of growth at 1 µM (MCF7 [26]): 58% | Activity (MCF-7 TR1 [27]): Active | Activity [28]: Active | Activity (MCF7 [29]): Active | Activity [30]: inactive | Activity [31]: Active | Activity (MCF7 [32]): inactive | inhibition [33]: Dose-dependent effect | pIC50 (MCF7 [34]): 6.18 | pIC50 (Ishikawa): 6.01 | Activity [35]: Active | pIC50 (HepG2): 6.05 | Activity (MCF-7 TR1 [36]): Active | Activity (MCF-7 TR1 [37]): Active | Activity (MCF-7 TR1 [38]): Active | Activity (MCF7 [39]): inactive | Activity [40]: Non-toxic | pIC50 [41]: 6.00 | Activity (MDA-MB-231 [42]): Active | Activity [43]: Active | Activity [44]: Non-toxic | Activity (MDA-MB-231 [45]): Active | Activity [46]: Active | Activity (MCF7 [47]): Dose-dependent effect

CCN(CC)c1nc2ccc3c4ccccc4oc3c2c(=O)[nH]1
Activity [3]: Non-toxic | growth inhibition (GI) (MDA-MB-231 [9]): Active | inhibition of growth at 1 µM (MCF7 [26]): 10%
